“Also recorded” adds a separate entry of the source.

Data on four substances can be found in publication PMC12455572, “Amphipathic Proline-Rich Cell Penetrating Peptides for Targeting Mitochondria” (ACS Chemical Biology, 2025).

Series [1] in a line: RP-HPLC retention time as estimate of hydrophobicity (C4 column, 30 to 55% B). The series is classed as physicochemical. The conditions noted are these: RP-HPLC used as estimate of hydrophobicity, A H2O/MeCN/TFA (1000/10/1), gradient 30 to 55% B, 20 min, CF-Ahx-labelled peptides. On the procedure: 2 (A) General structure of amphipathic peptides, CF-Ahx-[XZZ]3-NH2; CF = 5(6)-Carboxyfluorescein, Ahx = aminohexanoic acid. (B) CD spectra of the peptides, recorded at 50 μM in H2O, pH 5.7. For a comparison with a spectrum of a Gup oligomer, see Figure S2. (C) Retention time of the peptides measured by RP-HPLC on a C4 column with a mobile phase from 30 to 55% of MeCN in H2O/MeCN/TFA (1000/10/1). (D) Representative confocal microscopic images of live MCF-7 cells, incubated for 1 h at 37 °C with peptide solutions at a concentration of 10 μM in DMEM + 1% FBS (left, in green). Mitochondria were stained with Deep Red MitoTracker (middle, in red) and merged images (right, orange/yellow indicating colocalization) with Hoechst33342 stain (blue) for the nucleus. TEXT PRINTED IN THE PICTURE: (C) (ValZZ)3: tr(min): 1.8 | (C) (PheZZ)3: tr(min): 2.9 | (C) (TrpZZ)3: tr(min): 3.2 | (C) (ChaZZ)3: tr(min): 5.4 DOUBTS OF THE COPYIST ABOUT THIS PICTURE: Panel C, column head: the small lowered letter after t is read as r (tr), not certain
The Gup residues should preorganize the peptides into a PPII helix with one hydrophobic and two cationic edges along the PPII helical peptide. Indeed, circular dichroism (CD) spectra of the peptides display the characteristic minimum and maximum at ∼206 nm and ∼224 nm, respectively, of a PPII helix (Figure B). The spectra imply that the non-proline residues in every third position are tolerated within the helical structure. We used reverse phase high performance liquid chromatography (RP-HPLC) for an estimate of the hydrophobicity of the peptides. On a C4 column using two mobile phases A (H2O/MeCN/TFA (1000/10/1)) and B (MeCN) with a gradient of 30% to 55% B, all peptides eluted over 20 min but with different retention times (Figure C). The Cha-containing peptide had the longest retention time, indicating the highest hydrophobicity within the series, followed by the Trp-, Phe-, and Val-peptides.

Series [2] has as its system MCF-7 cells. Briefly: Confocal microscopy of live cells: cellular uptake and intracellular localization. It is filed as cell-based. The conditions noted are these: live MCF-7 cells, 1 h, 37 °C, DMEM + 1% FBS. On the procedure: MitoTracker Deep Red was used as a counter stain for mitochondria and Hoechst 33342 for the nucleus. […] To explore whether PPII-helicity is key for mitochondrial localization, we prepared peptide CF-Ahx-(ChaRR)3-NH2 with Arg instead of Gup residues. This control peptide features a flexible conformation as judged by CD spectroscopy (Figure S1B). […] These findings show the importance of the secondary structure of the CPP for subcellular organelle localization.
MCF-7 cells were seeded in a 8-μwell Ibidi plate at 25′000 cells/well in DMEM (100 μL, 10% FCS) and allowed to adhere overnight. The medium was removed, the cells were washed with PBS (200 μL, 1x) and incubated with the peptide solution at 20 μM, 10 μM, 5 μM or 2.5 μM in DMEM (200 μL, 1% FCS) for 1 h at 37 °C. The medium was removed, and the cells were washed with PBS (200 μL, 2x). MitoTracker Deep Red was distributed at 20 nM in DMEM (200 μL, 1% FBS) and the cells were incubated at 37 °C for 25 min. The medium was removed, and the cells were washed with PBS (200 μL, 2x). Hoechst333342 was distributed at 2 μM in DMEM (200 μL, 1% FBS) and the cells were incubated at 37 °C for 5 min. The cells were washed with PBS (200 μL, 2x), and FluoroBrite medium (200 μL) was added. The live cells were monitored on the confocal microscope at 37 °C, 5% CO2.
For the cells subjected to a 24 h rest period, the FluoroBrite medium was exchanged for DMEM (200 μL, 10% FBS) after the initial imaging, and the cells were kept in this medium for 24 h. The culture medium was then exchanged for FluoroBrite DMEM, and the cells were imaged again.
Fluorescence images of cells were collected using a Nikon Eclipse T1 (inverse) microscope equipped with a Yokogawa Confocal Scanner Unit CSU-W1-T2, containing a spinning disk (50 µm). The microscope is equipped with two EMCCD Andor iXon Ultra cameras. Emission in the blue channel (405 nm) was filtered with a 450/50 bandpass filter, emission in the green channel (488 nm) was filtered with a 525/50 bandpass, and the emission in the red channel (641 nm) was filtered with a 708/75 bandpass filter. Fluorescence images were obtained using an oil-immersion objective with a magnification of 100 × 1.4 CFI Plan Apo Oil.
Each experiment was repeated at least three times. The images acquired were adjusted using ImageJ2 software. Correlation coefficients were determined on entire images using JaCOP plugin.1 […]
MCF-7 cells were seeded in a 8-µwell Ibidi plate at 25’000 cells/well in DMEM (100 µL, 10% FCS) and allowed to adhere overnight. The medium was removed. The cells were washed with PBS (200 µL, 1x) and incubated with the peptide solution at 20 µM, 10 µM, 5 µM, or 2.5 µM in DMEM (200 µL, 1% FCS) for 1 h at 37 °C. The medium was removed, and the cells were washed with PBS (200 µL, 2x).
For imaging of mitochondria, MitoTracker Deep Red was added as described in the manuscript. For imaging of endosomes/lysosomes, Ly s o Tr a c k e r Deep Red was added (200 µL, 20 nM in DMEM, 1% FBS) followed by incubation of the cells at 37 °C for 25 min. The medium was removed, and the cells were washed with PBS (200 µL, 2x). For imaging of the nucleus, Hoechst333342 was added at (200 µL, 2 µM in DMEM, 1% FBS) followed by incubation of the cells at 37 °C for 5 min. The cells were washed with PBS (200 µL, 2x), and FluoroBrite medium (200 µL) was added. The live cells were monitored on the confocal microscope […]
MCF-7 cells were seeded in a 96-well plate at 7’500 cells/well in cell culture medium (200 µL, 10% FCS), and allowed to adhere overnight. The medium was removed, the cells were washed with PBS (100 µL, 1x) and incubated with the peptide solution at 20 µM, 10 µM, 5 µM, or 2.5 µM in DMEM (200 µL, 1% FCS) for 1 h at 37 °C. The medium was removed, and the cells were washed with PBS (100 µL, 1x). The MTT solution in DMEM (110 µL, 1.2 mM, 1% FBS) was added. The cells were incubated for 3 h at 37 °C. The […]

For series [3] the following is noted: earlier work of the authors' group; ref number not given; cited from earlier work. From the text:
Octa-Gup adopts a polyproline II (PPII) helix in which every third amino acid is aligned (Figure E, center). As a result, the charges are organized along the three edges of the helix. […] In contrast, more flexible analogs–octaarginine and an oligoproline with spacers between the proline backbone and the guanidinium group–are trapped in endo ...

The subject of series [4] is MCF-7 cells. Briefly: Flow cytometry (FACS): overall cellular uptake. Particulars: MCF-7, 1 h, 37 °C, Figure S1D. It is filed as cell-based. On the procedure: MCF-7 cells were seeded in a 24-well plate at 150′000 cells/well in DMEM (1 mL, 10% FCS), and allowed to adhere overnight. The medium was removed, the cells were washed with PBS (250 μL, 1x) and incubated with the peptide solution at 20 μM, 10 μM, 5 μM or 2.5 μM in medium (200 μL, 1% FCS) for 1 h at 37 °C. The medium was removed, and the cells were washed with PBS (250 μL, 2x). Trypsin (100 μL, 0.05%) was added, and the cells were incubated at 37 °C for 5 min. D-PBS with Mg^2+ and Ca^2+ (300 μL, 4 °C) was added, the cells were resuspended and centrifuged for 5 min at 0.4 rcf. The supernatant was carefully removed, and the cells were resuspended in a solution of PBS containing 1.5 μM PI and 2 mM EDTA (400 μL at 4 °C). The cells were added to FACS tubes and kept on ice prior to analysis. Each sample contained 10′000 cells and was analyzed in triplicate. Each experiment was repeated three times.
For the experiments that included the 24 h rest period, the peptides were incubated as described above. After the 1 h incubation time, the cells were washed with PBS (250 μL, 2x), DMEM (250 μL, 10% FBS) was added, and the cells were kept at 37 °C, 5% CO2 for 24 h. For a direct comparison of the effect of a 24 h rest period, another set of peptides was incubated with the cells for 1 h. Then, cells of both sets of experiments (1 h followed by the 24 h rest period versus 1 h incubation) were washed with PBS, treated with trypsin, and prepared for FACS analysis as described above. Each sample was run in triplicate and was repeated three times. […]
MCF-7 cells were obtained from the American Type Culture Collection (ATCC).
The cells were grown in a humidified 5% CO2 atmosphere at 37 °C Dulbecco’s Modified Eagle’s Medium (DMEM), high glucose, GlutaMAXTM (4 mM) supplemented with L-glutamine (4 mM), gentamicin (10 mg/L), […]
Fluorescence-Activated Cell Sorting (FACS) analyzer
On a BD LSRFortessa flow cytometer, CF was excited at 488 nm and monitored with 530/30 bandpass, PI was excited at 561 nm and monitored with a 610/20 bandpass. Mean fluorescence values were determined from the histograms using FlowJo 10.0.6 software while dead cells were removed according to PI staining.
Below is an example, CF-Ahx-(ChaZZ)3, of gating, set on untreated cells and propagated to all samples.
Each sample was run in triplicate, and each experiment was repeated at least three times.
(1 picture or pasted object on this page, not shown here)

Where [5] appears, read: 10 μM peptide, MitoTracker Deep Red and Hoechst 33342 counterstain.

For CF-Ahx-(ChaZZ)2-NH2, in series [1], the Retention time tr is recorded as 4.9 min. Further, in the series with MCF-7 cells [2] (20 μM peptide), the “Cellular uptake and intracellular localization (confocal microscopy)” value was “did not penetrate into the cells; also recorded: intracellular fluorescence was not detected”.

On to octaarginine, for which the “Cellular uptake and intracellular localization” value in series [3] was “trapped in endosomes to a significant extent and exhibit reduced cellular uptake”.

In the case of “CF-Ahx-VZZVZZVZZ [(ValZZ)3, 9-mer CF-Ahx-(XZZ)3-NH2 with X = valine, Z = Gup]”, the “Cellular uptake and intracellular localization (confocal microscopy)” value in the series with MCF-7 cells [2] (setting [5]) and with MCF-7 cells [2] (20 μM peptide) was “little cellular uptake” throughout.

Turning to CF-Ahx-(ChaRR)3-NH2, the “Cellular uptake compared to (ChaZZ)3 (FACS)” value with MCF-7 cells [4] is listed as “enhanced cellular uptake”. In addition, the “Cellular uptake and intracellular localization (confocal microscopy)” value in the series with MCF-7 cells [2] (5 μM peptide) was “low uptake”; with MCF-7 cells [2] (setting [5]), “excluded from mitochondria”; with MCF-7 cells [2] (10 μM peptide, MitoTracker Deep Red and Hoechst 33342 counterstain, listed as CF-Ahx-(ChaRR)3-NH2), “high uptake into the cytoplasm and the nucleus, but little to no uptake into mitochondria”.
